Key:
Test in all cases: post-emergence herbicidal activity, greenhouse
Format in all cases: in vivo
Barnyardgrass = system: Barnyardgrass
From the text: (§1) A good grade of top soil is placed in aluminum pans having holes in the bottom and compacted to a depth of 0.95 to 1.27 cm. from the top of the pan. A predetermined number of seeds of each of several dicotyledonous and monocotyledonous annual plant species and/or vegetative propagules for the perennial plant species are placed on the soil and pressed into the soil surface. The seeds and/or vegetative propagules are covered with soil and leveled. The pans are then placed on a sand bench in the greenhouse and watered from below as needed. After the plants reach the desired age (two to three weeks), each pan except for the control pans is removed individually to a spraying chamber and sprayed by means of an atomizer operating at a positive air pressure of approximately 1.46 kg/cm^2 absolute. The atomizer contains 6 ml. of a solution or suspension of the chemical. In that 6 ml., is an amount of a cyclohexanone emulsifying agent mixture to give a spray solution or suspension which contains about 0.4% by weight of the emulsifier. The spray solution or suspension contains a sufficient amount of the candidate chemical in order to give application rates corresponding to those set forth in the tables. The spray solution is prepared by taking an aliquot of a 1.0% by weight stock solution or suspension of the candidate chemical in an organic solvent such as acetone or tetrahydrofuran or in water. The emulsifying agent employed is a mixture comprising 35 weight percent butylamine dodecylbenzene sulfonate and 65 weight percent of a tall oil ethylene oxide condensate having about 11 moles of ethylene oxide per mole of tall oil. The pans are returned to the greenhouse and watered as before and the injury to the plants as compared to the control is observed at approximately two and four weeks as indicated in the tables under WAT and the results recorded. In some instances, the two-week observations are omitted.
(§2) The post-emergence herbicidal activity index used in Table I is as follows: […]

Cocklebur = system: Cocklebur
From the text: as §1, §2

Crabgrass = settings: Table II, 2 WAT
From the text: as §1, §2

Downy Brome = system: Downy Brome
From the text: as §1, §2

Hemp Sesbania = settings: Table II, 2 WAT
From the text: as §1, §2

Johnsongrass = settings: Table I, 4 WAT
From the text: as §1, §2

Lambsquarters = system: Lambsquarters
From the text: as §1, §2

Morningglory = system: Morningglory
From the text: as §1, §2

Panicum Spp = settings: Table II, 2 WAT
From the text: as §1, §2

Quackgrass = settings: Table I, 4 WAT
From the text: as §1, §2

Rice = settings: Table II, 2 WAT
From the text: as §1, §2

Smartweed = system: Smartweed
From the text: as §1, §2

Sorghum = settings: Table II, 2 WAT
From the text: as §1, §2

Soybean = settings: Table II, 2 WAT
From the text: as §1, §2

Sugar Beet = settings: Table II, 2 WAT
From the text: as §1, §2

Velvetleaf = system: Velvetleaf
From the text: as §1, §2

Wheat = settings: Table II, 2 WAT
From the text: as §1, §2

Wild Buckwheat = settings: Table II, 2 WAT
From the text: as §1, §2

Yellow Nutsedge = settings: Table I, 4 WAT
From the text: as §1, §2

## N#CCN(CP(=O)(Oc1ccccc1)Oc1ccccc1)SSc1ccc(Cl)cc1 [XI]
Barnyardgrass; Table I, 4 WAT, 5.6 kg/h
  post-emergence herbicidal activity index: 0 (0-24% control)
Barnyardgrass; Table I, 4 WAT, 11.2 kg/h
  post-emergence herbicidal activity index: 3 (75-99% control)
Barnyardgrass; Table II, 2 WAT, 1.12 kg/h
  post-emergence herbicidal activity index: 0 (0-24% control)
Barnyardgrass; Table II, 2 WAT, 5.6 kg/h
  post-emergence herbicidal activity index: 1 (25-49% control)
Cocklebur; Table I, 4 WAT, 5.6 kg/h
  post-emergence herbicidal activity index: 0 (0-24% control)
Cocklebur; Table I, 4 WAT, 11.2 kg/h
  post-emergence herbicidal activity index: 3 (75-99% control)
Cocklebur; Table II, 2 WAT, 1.12 kg/h
  post-emergence herbicidal activity index: 0 (0-24% control)
Cocklebur; Table II, 2 WAT, 5.6 kg/h
  post-emergence herbicidal activity index: 3 (75-99% control)
Crabgrass; 1.12 kg/h
  post-emergence herbicidal activity index: 0 (0-24% control)
Crabgrass; 5.6 kg/h
  post-emergence herbicidal activity index: 3 (75-99% control)
Downy Brome; Table I, 4 WAT, 5.6 kg/h
  post-emergence herbicidal activity index: 0 (0-24% control)
Downy Brome; Table I, 4 WAT, 11.2 kg/h
  post-emergence herbicidal activity index: 1 (25-49% control)
Downy Brome; Table II, 2 WAT, 1.12 kg/h
  post-emergence herbicidal activity index: 0 (0-24% control)
Downy Brome; Table II, 2 WAT, 5.6 kg/h
  post-emergence herbicidal activity index: 1 (25-49% control)
Hemp Sesbania; 1.12 kg/h
  post-emergence herbicidal activity index: 0 (0-24% control)
Hemp Sesbania; 5.6 kg/h
  post-emergence herbicidal activity index: 1 (25-49% control)
Johnsongrass; 5.6 kg/h
  post-emergence herbicidal activity index: 0 (0-24% control)
Johnsongrass; 11.2 kg/h
  post-emergence herbicidal activity index: 2 (50-74% control)
Lambsquarters; Table I, 4 WAT, 5.6 kg/h
  post-emergence herbicidal activity index: 0 (0-24% control)
Lambsquarters; Table I, 4 WAT, 11.2 kg/h
  post-emergence herbicidal activity index: 4 (100% control)
Lambsquarters; Table II, 2 WAT, 1.12 kg/h
  post-emergence herbicidal activity index: 0 (0-24% control)
Lambsquarters; Table II, 2 WAT, 5.6 kg/h
  post-emergence herbicidal activity index: 3 (75-99% control)
Morningglory; Table I, 4 WAT, 5.6 kg/h
  post-emergence herbicidal activity index: 0 (0-24% control)
Morningglory; Table I, 4 WAT, 11.2 kg/h
  post-emergence herbicidal activity index: 1 (25-49% control)
Morningglory; Table II, 2 WAT, 1.12 kg/h
  post-emergence herbicidal activity index: 0 (0-24% control)
Morningglory; Table II, 2 WAT, 5.6 kg/h
  post-emergence herbicidal activity index: 1 (25-49% control)
Panicum Spp; 1.12 kg/h
  post-emergence herbicidal activity index: 0 (0-24% control)
Panicum Spp; 5.6 kg/h
  post-emergence herbicidal activity index: 1 (25-49% control)
Quackgrass; 5.6 kg/h
  post-emergence herbicidal activity index: 0 (0-24% control)
Quackgrass; 11.2 kg/h
  post-emergence herbicidal activity index: 2 (50-74% control)
Rice; 1.12 kg/h
  post-emergence herbicidal activity index: 0 (0-24% control)
Rice; 5.6 kg/h
  post-emergence herbicidal activity index: 1 (25-49% control)
Smartweed; Table I, 4 WAT, 5.6 kg/h
  post-emergence herbicidal activity index: 0 (0-24% control)
Smartweed; Table I, 4 WAT, 11.2 kg/h
  post-emergence herbicidal activity index: 2 (50-74% control)
Smartweed; Table II, 2 WAT, 1.12 kg/h
  post-emergence herbicidal activity index: 0 (0-24% control)
Smartweed; Table II, 2 WAT, 5.6 kg/h
  post-emergence herbicidal activity index: 1 (25-49% control)
Sorghum; 1.12 kg/h
  post-emergence herbicidal activity index: 0 (0-24% control)
Sorghum; 5.6 kg/h
  post-emergence herbicidal activity index: 1 (25-49% control)
Soybean; 1.12 kg/h
  post-emergence herbicidal activity index: 0 (0-24% control)
Soybean; 5.6 kg/h
  post-emergence herbicidal activity index: 1 (25-49% control)
Sugar Beet; 1.12 kg/h
  post-emergence herbicidal activity index: 1 (25-49% control)
Sugar Beet; 5.6 kg/h
  post-emergence herbicidal activity index: 3 (75-99% control)
Velvetleaf; Table I, 4 WAT, 5.6 kg/h
  post-emergence herbicidal activity index: 0 (0-24% control)
Velvetleaf; Table I, 4 WAT, 11.2 kg/h
  post-emergence herbicidal activity index: 2 (50-74% control)
Velvetleaf; Table II, 2 WAT, 1.12 kg/h
  post-emergence herbicidal activity index: 0 (0-24% control)
Velvetleaf; Table II, 2 WAT, 5.6 kg/h
  post-emergence herbicidal activity index: 3 (75-99% control)
Wheat; 1.12 kg/h
  post-emergence herbicidal activity index: 0 (0-24% control)
Wheat; 5.6 kg/h
  post-emergence herbicidal activity index: 2 (50-74% control)
Wild Buckwheat; 1.12 kg/h
  post-emergence herbicidal activity index: 0 (0-24% control)
Wild Buckwheat; 5.6 kg/h
  post-emergence herbicidal activity index: 3 (75-99% control)
Yellow Nutsedge; 5.6 kg/h
  post-emergence herbicidal activity index: 0 (0-24% control)
Yellow Nutsedge; 11.2 kg/h
  post-emergence herbicidal activity index: 1 (25-49% control)

— US4508663A, “Process for preparing thiosulfenamide derivatives of N-phosphonomethylglycinonitriles” (Monsanto Company, priority 1983, dated 1985)
